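Grown in 96-well plates, cells were treated for 48 hours with each compound at five concentrations. Insufficient inhibition: endpoint recorded as highest concentration tested. TGI marks complete inhibition of growth.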
Columns and labels:
Test in all cases: NCI tumour cell line growth inhibition, 48 h
HCT-15 colon = system: HCT-15 colon
HT29 colon = system: HT29 colon
K-562 leukemia = system: K-562 leukemia
KM20L2 colon = system: KM20L2 colon
NCI-H226 lung = system: NCI-H226 lung
NCI-H460 lung = system: NCI-H460 lung
OVCAR-3 ovarian = system: OVCAR-3 ovarian
OVCAR-5 ovarian = system: OVCAR-5 ovarian
OVCAR-8 ovarian = system: OVCAR-8 ovarian
SF-268 CNS = system: SF-268 CNS
SF-295 CNS = system: SF-295 CNS
SK-MEL-2 melanoma = system: SK-MEL-2 melanoma
SK-MEL-5 melanoma = system: SK-MEL-5 melanoma
SK-OV-3 ovarian = system: SK-OV-3 ovarian
SN12C renal = system: SN12C renal
SR leukemia = system: SR leukemia
SW-620 colon = system: SW-620 colon
U251 CNS = system: U251 CNS
UO-31 renal = system: UO-31 renal
XF 498 CNS = system: XF 498 CNS

Measured: TGI

COc1ccc(Nc2cnc3cc(N)ccc3n2)cc1OC
> 100 µM: all assays above
